# Measured values taken from ChEMBL document CHEMBL4028802, “DILIrank: the largest reference drug list ranked by the risk for developing drug-induced liver injury in humans” (Drug Discov Today, 2016).
# Starred links: 1 amine or outer side, 2 acyl side, 3 side chain; linkers in the order of their positions; H or OH if unused. Positions of bridges follow the written chain, without caps; N, C: chain ends. Non-standard residues stand in square brackets, D forms with d. Residues, ends and D or L forms follow the SMILES beside them. *: point of attachment. pTerphenylCO(4''-OnC5H11) = CCCCCOc1ccc(-c2ccc(-c3ccc(C(=O)*)cc3)cc2)cc1; Orn(4R-OH,5R-OH) = O=C([C@H](C[C@@H](O)[C@@H](O)N[*:3])N[*:1])[*:2]; hTyr(3S-OH,4S-OH) = N[C@H](C(=O)O)[C@H](O)[C@@H](O)c1ccc(O)cc1; Ileψ(thiazoline)Cys = CC[C@H](C)[C@H](N)C1=N[C@H](C(=O)*)CS1; Pro(3S-OH,4S-Me) = C[C@H]1CN[C@H](C(=O)O)[C@H]1O; Hyp = O=C(O)[C@@H]1C[C@@H](O)CN1; dOrn = NCCC[C@@H](N)C(=O)O
# Assays:
# Homo sapiens [1] = organism: Homo sapiens; test: Liver toxicity in human assessed as induction of drug-induced liver injury by measuring severity class index
# Homo sapiens [2] = organism: Homo sapiens; test: Liver toxicity in human assessed as induction of drug-induced liver injury by measuring verified drug-induced liver injury concern status
# Wherever DILI severity class is given: key of the grades not given here.
Compound,DILI_severity_class (Homo sapiens [1]),DILI_Concern (Homo sapiens [2])
CN(C)CCc1c[nH]c2ccc(CS(=O)(=O)N3CCCC3)cc12 [ALMOTRIPTAN],0,No-Dili-Concern
Cc1[nH]cnc1CN1CCc2c(c3ccccc3n2C)C1=O [ALOSETRON],4,Less-Dili-Concern
CCCN(CCC)C(=O)Cc1c(-c2ccc(Cl)cc2)nc2ccc(Cl)cn12 [ALPIDEM],8,Most-Dili-Concern
Cc1nnc2n1-c1ccc(Cl)cc1C(c1ccccc1)=NC2 [ALPRAZOLAM],7,Less-Dili-Concern
CN(C)c1nc(N(C)C)nc(N(C)C)n1 [ALTRETAMINE],2,Ambiguous-Dili-Concern
C[C@H]1CN(C[C@H](Cc2ccccc2)C(=O)NCC(=O)O)CC[C@@]1(C)c1cccc(O)c1 [ALVIMOPAN],0,No-Dili-Concern
NC12CC3CC(CC(C3)C1)C2 [AMANTADINE],3,Ambiguous-Dili-Concern
CC[N+](CC)(CCNC(=O)C(=O)NCC[N+](CC)(CC)Cc1ccccc1Cl)Cc1ccccc1Cl [AMBENONIUM],0,No-Dili-Concern
COC(c1ccccc1)(c1ccccc1)[C@H](Oc1nc(C)cc(C)n1)C(=O)O [AMBRISENTAN],7,Ambiguous-Dili-Concern
NCCCNCCSP(=O)(O)O [AMIFOSTINE],0,No-Dili-Concern
NCC[C@H](O)C(=O)N[C@@H]1C[C@H](N)[C@@H](O[C@H]2O[C@H](CN)[C@@H](O)[C@H](O)[C@H]2O)[C@H](O)[C@H]1O[C@H]1O[C@H](CO)[C@@H](O)[C@H](N)[C@H]1O [AMIKACIN],0,No-Dili-Concern
N=C(N)NC(=O)c1nc(Cl)c(N)nc1N [AMILORIDE],3,Less-Dili-Concern
O=C(O)CCCCCCNC1c2ccccc2CCc2ccccc21 [AMINEPTINE],8,Most-Dili-Concern
NCCCCCC(=O)O [AMINOCAPROIC ACID],0,No-Dili-Concern
Nc1ccc(C(=O)NCC(=O)O)cc1 [AMINOHIPPURIC ACID],0,No-Dili-Concern
Cn1c(=O)c2[nH]cnc2n(C)c1=O.Cn1c(=O)c2[nH]cnc2n(C)c1=O.NCCN [AMINOPHYLLINE],0,No-Dili-Concern
Nc1ccc(C(=O)O)c(O)c1 [AMINOSALICYLIC ACID],5,Most-Dili-Concern
CCCCc1oc2ccccc2c1C(=O)c1cc(I)c(OCCN(CC)CC)c(I)c1 [AMIODARONE],8,Most-Dili-Concern
CN(C)CCC=C1c2ccccc2CCc2ccccc21 [AMITRIPTYLINE],5,Less-Dili-Concern
CCOC(=O)C1=C(COCCN)NC(C)=C(C(=O)OC)C1c1ccccc1Cl (stereo not given) [AMLODIPINE],5,Less-Dili-Concern
Cl.N [AMMONIUM CHLORIDE],0,No-Dili-Concern
Clc1ccc2c(c1)C(N1CCNCC1)=Nc1ccccc1O2 [AMOXAPINE],3,Ambiguous-Dili-Concern
CC1(C)S[C@@H]2[C@H](NC(=O)[C@H](N)c3ccc(O)cc3)C(=O)N2[C@H]1C(=O)O [AMOXICILLIN],5,Less-Dili-Concern
CC(N)Cc1ccccc1 (stereo not given) [AMPHETAMINE],0,Less-Dili-Concern
C[C@@H]1[C@H](O)[C@@H](C)/C=C/C=C/C=C/C=C/C=C/C=C/C=C/[C@H](O[C@@H]2O[C@H](C)[C@@H](O)[C@H](N)[C@@H]2O)C[C@@H]2O[C@](O)(C[C@@H](O)C[C@@H](O)[C@H](O)CC[C@@H](O)C[C@@H](O)CC(=O)O[C@H]1C)C[C@H](O)[C@H]2C(=O)O [AMPHOTERICIN B],3,Less-Dili-Concern
CC1(C)S[C@@H]2[C@H](NC(=O)[C@H](N)c3ccccc3)C(=O)N2[C@H]1C(=O)O [AMPICILLIN],3,Less-Dili-Concern
O=C1CN2Cc3c(ccc(Cl)c3Cl)N=C2N1 [ANAGRELIDE],3,Ambiguous-Dili-Concern
CC(C)(C#N)c1cc(Cn2cncn2)cc(C(C)(C)C#N)c1 [ANASTROZOLE],3,Less-Dili-Concern

Compound,DILI_severity_class (Homo sapiens [1]),DILI_Concern (Homo sapiens [2])
"CCCCCOc1ccc(-c2ccc(-c3ccc(C(=O)N[C@H]4C[C@@H](O)[C@@H](O)NC(=O)[C@@H]5[C@@H](O)[C@@H](C)CN5C(=O)[C@H]([C@@H](C)O)NC(=O)[C@H]([C@H](O)[C@@H](O)c5ccc(O)cc5)NC(=O)[C@@H]5C[C@@H](O)CN5C(=O)[C@H]([C@@H](C)O)NC4=O)cc3)cc2)cc1 [ANIDULAFUNGIN] ({pTerphenylCO(4''-OnC5H11)}-[Orn(4R-OH,5R-OH)]T[Hyp][hTyr(3S-OH,4S-OH)]T[Pro(3S-OH,4S-Me)]; lactam 1-C)",7,Ambiguous-Dili-Concern
CCCCN1C(=O)[C@@H]([C@H](O)C2CCCCC2)NC(=O)C12CCN(Cc1ccc(Oc3ccc(C(=O)O)cc3)cc1)CC2 [APLAVIROC],8,Most-Dili-Concern
CN1CCc2cccc3c2[C@H]1Cc1ccc(O)c(O)c1-3 [APOMORPHINE],0,No-Dili-Concern
C[C@@H](O[C@H]1OCCN(Cc2n[nH]c(=O)[nH]2)[C@H]1c1ccc(F)cc1)c1cc(C(F)(F)F)cc(C(F)(F)F)c1 [APREPITANT],3,Ambiguous-Dili-Concern
CC1CNc2c(cccc2S(=O)(=O)N[C@@H](CCCNC(=N)N)C(=O)N2CC[C@@H](C)C[C@@H]2C(=O)O)C1 (stereo not given in full) [ARGATROBAN],0,No-Dili-Concern
N=C(N)NCCC[C@H](N)C(=O)O [ARGININE],0,No-Dili-Concern
O=C1CCc2ccc(OCCCCN3CCN(c4cccc(Cl)c4Cl)CC3)cc2N1 [ARIPIPRAZOLE],5,Ambiguous-Dili-Concern
NC(=O)C[S@@+]([O-])C(c1ccccc1)c1ccccc1 [ARMODAFINIL],3,Ambiguous-Dili-Concern
O=[As][As+](=O)[O-] (stereo not given) [ARSENIC TRIOXIDE],3,Ambiguous-Dili-Concern
O=C1O[C@H]([C@@H](O)CO)C(O)=C1O [ASCORBIC ACID],0,No-Dili-Concern
CC(=O)Oc1ccccc1C(=O)O [ASPIRIN],0,Less-Dili-Concern
COC(=O)N[C@H](C(=O)N[C@@H](Cc1ccccc1)[C@@H](O)CN(Cc1ccc(-c2ccccn2)cc1)NC(=O)[C@@H](NC(=O)OC)C(C)(C)C)C(C)(C)C [ATAZANAVIR],3,Less-Dili-Concern
CC(C)NCC(O)COc1ccc(CC(N)=O)cc1 (stereo not given) [ATENOLOL],4,Less-Dili-Concern
CNCC[C@@H](Oc1ccccc1C)c1ccccc1 [ATOMOXETINE],8,Most-Dili-Concern
CC(C)c1c(C(=O)Nc2ccccc2)c(-c2ccccc2)c(-c2ccc(F)cc2)n1CC[C@@H](O)C[C@@H](O)CC(=O)O [ATORVASTATIN],5,Most-Dili-Concern
O=C1C(O)=C([C@H]2CC[C@H](c3ccc(Cl)cc3)CC2)C(=O)c2ccccc21 [ATOVAQUONE],8,Ambiguous-Dili-Concern
CN1[C@@H]2CC[C@H]1C[C@@H](OC(=O)C(CO)c1ccccc1)C2 (stereo not given in full) [ATROPINE],0,No-Dili-Concern
Nc1ncn([C@@H]2O[C@H](CO)[C@@H](O)[C@H]2O)c(=O)n1 [AZACITIDINE],8,Ambiguous-Dili-Concern
Cn1cnc([N+](=O)[O-])c1Sc1ncnc2nc[nH]c12 [AZATHIOPRINE],5,Most-Dili-Concern
CC[C@H]1OC(=O)[C@H](C)[C@@H](O[C@H]2C[C@@](C)(OC)[C@@H](O)[C@H](C)O2)[C@H](C)[C@@H](O[C@@H]2O[C@H](C)C[C@H](N(C)C)[C@H]2O)[C@](C)(O)C[C@@H](C)CN(C)[C@H](C)[C@@H](O)[C@]1(C)O [AZITHROMYCIN],7,Less-Dili-Concern
C[C@H]1[C@H](NC(=O)/C(=N\OC(C)(C)C(=O)O)c2csc(N)n2)C(=O)N1S(=O)(=O)O [AZTREONAM],5,Ambiguous-Dili-Concern
CC[C@H](C)[C@H](N)C1=N[C@H](C(=O)N[C@@H](CC(C)C)C(=O)N[C@H](CCC(=O)O)C(=O)N[C@H](C(=O)N[C@H]2CCCCNC(=O)[C@H](CC(N)=O)NC(=O)[C@@H](CC(=O)O)NC(=O)[C@H](Cc3cnc[nH]3)NC(=O)[C@@H](Cc3ccccc3)NC(=O)[C@H]([C@@H](C)CC)NC(=O)[C@@H](CCCN)NC2=O)[C@@H](C)CC)CS1 [BACITRACIN] ({Ileψ(thiazoline)Cys}-L[dE]IK[dOrn]I[dF]H[dD]N; lactam 4-C),0,No-Dili-Concern
NCC(CC(=O)O)c1ccc(Cl)cc1 (stereo not given) [BACLOFEN],3,Less-Dili-Concern
O=C(O)CCNC(=O)c1ccc(/N=N/c2ccc(O)c(C(=O)O)c2)cc1 [BALSALAZIDE],8,Ambiguous-Dili-Concern
CCOC(=O)[C@H](CCc1ccccc1)N[C@H]1CCc2ccccc2N(CC(=O)O)C1=O [BENAZEPRIL],4,Less-Dili-Concern
Cn1c(CCCC(=O)O)nc2cc(N(CCCl)CCCl)ccc21 [BENDAMUSTINE],0,No-Dili-Concern
O=C(O)COc1nn(Cc2ccccc2)c2ccccc12 [BENDAZAC],8,Most-Dili-Concern
